Data from PMC7641581, “Cannabidiol interactions with voltage-gated sodium channels” (eLife, 2020).
Where a chain is given by its changes, count along the chain named.

Experiments:
[1] = molecular target: T1, NavMs voltage-gated sodium channel (Magnetococcus marinus, UniProt A0L5S6); assay: whole-cell voltage-clamp of transfected CHO-K1 cells; format: cell-based
T1 construct: gene Mmc1_0798; wild-type NavMs α-subunit in CHO-K1 cells, co-transfected with β1-subunit and eGFP
T1 sequence (A0L5S6 1-274): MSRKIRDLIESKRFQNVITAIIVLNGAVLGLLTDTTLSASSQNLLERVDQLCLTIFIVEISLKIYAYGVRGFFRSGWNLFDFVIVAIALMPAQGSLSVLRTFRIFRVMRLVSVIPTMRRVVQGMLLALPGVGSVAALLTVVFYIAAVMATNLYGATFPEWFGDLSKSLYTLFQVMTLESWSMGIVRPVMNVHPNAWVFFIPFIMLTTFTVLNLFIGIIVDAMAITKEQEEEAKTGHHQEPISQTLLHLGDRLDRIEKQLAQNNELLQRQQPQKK

[2] = molecular target: T2, NavMs voltage-gated sodium channel (Magnetococcus marinus, UniProt A0L5S6, T207A); assay: whole-cell voltage-clamp, block at […] CBD; format: cell-based
T2 construct: gene Mmc1_0798; T207A NavMs α-subunit in CHO-K1 cells, co-transfected with β1-subunit and eGFP
T2 sequence (A0L5S6 1-274 T207A): T1 sequence (A0L5S6 1-274) with T207A

C=C(C)[C@@H]1CCC(C)=C[C@H]1c1c(O)cc(CCCCC)cc1O [Cannabidiol] was tested, and the IC50 [1] was 17.8 ± 0.5 µM and the “whole-cell voltage-clamp, block at 10 μM CBD” value [2] was “The mutation of the threonine side chain to a smaller alanine side chain results in a modest reduction in the CBD block”.
